Results reported in paper PMC9023544, “Ketone-selenoesters as potential anticancer and multidrug resistance modulation agents in 2D and 3D ovarian and breast cancer in vitro models” (Scientific Reports, 2022).

Test system: ABC superfamily genes in MCF-7/PAX
Assay: Expression of genes encoding ABC transporters, qPCR
Format: cell-based, human
Description: Based on the fact that compounds K3, K4, K7 sensitized drug-resistant cell lines (HOC/ADR, MCF-7/PAX) and modulated ATPase activity of one from the ABC proteins (P-gp), we verified the potential of these compounds to affect ABC superfamily gene expression. The ovarian and breast cancer cell lines (parental cells and resistant sub-line) were analysed for the expression profile of genes encoding the ABC proteins in the previous works[18]–[20]. […] After 48 h, the effect of compounds alone or in the combination with cytostatics was observed (Supplementary Tables 1, Table 2).
To determine the impact of selected compounds on the expression of genes encoding ABC transporter, HOC/ADR and MCF-7/PAX cells were seeded for 24 h into 5 cm Petri dishes with DMEM medium at the cell density 1 × 10^5 cells/mL. Afterwards, the cells were washed 1× with PBS and new fresh DMEM supplemented with K3, K4, and K7 (in concentration corresponding to their IC10 value) alone or combined with cytostatics (Adriamycin or paclitaxel in concentration corresponding to their IC25 value) was added. In the experiment, positive and negative control was also included (positive—untreated cells, negative—cells treated only with cytostatics). After 48 h exposure, the cells were washed once with PBS and released from the surface by using the above-mentioned trypsin–EDTA procedure. The enzyme reaction was stopped by medium addition and the cells were centrifuged (3200×g; 10 min, 4 °C). The supernatants were removed and before the next centrifugation, the pellets were resuspended in 1.5 mL of cooled PBS (5400×g; 10 min, 4 °C). After the second washing step, the cells were centrifuged another time (10,000×g; 3 min, 4 °C). Subsequently, 1 mL of Trizol (Invitrogen) was added to the pellets and the compounds were stored − 80 °C.
The RNA concentration of selenoester treated samples was determined using QuantiT RiboGreen RNA Assay Kit and Infinite M200 plate reader (Tecan, Männedor, Switzerland). The cDNA was synthesized from 0.5 µg of total RNA by RevertAid First Strand Synthesis cDNA Kit (MBI Fermentas, Vilnius, Lithuania). To determine the quality of cDNA, the ubiquitin C gene fragment was amplified. The experiment was performed in 384-well block by using ViiA7 Real-Time PCR System (Life Technologies, Camarillo, California, United States). A master mix contained 0.25 µL of 20× TaqMan Gene Expression Assay, 1 µL of 5× HotFIREPol Probe qPCR Mix Plus, 1.75 µL of RNase free water and 2 µL of 8× diluted cDNA. The final reaction volume was 5 µL. The PCR parameters were as follows: initial hold (50 °C for 2 min), denaturation (95 °C for 10 min), followed by 45 cycles (denaturation at 95 °C for 15 s, annealing at 60 °C for 1 min). After each cycle, the fluorescent signal was determined. For each compound, duplicates were analysed and those with a standard deviation higher than 0.5 Ct were re-analysed. A quantitate real-time PCR was followed by MIQE guidelines. To compare the relative transcript levels of genes, the software REST 2009 (Qiagen, Hilden, Germany) was used.
Table 2. Effect of selenoesters either on the expression of the ABC gene superfamily in paclitaxel-resistant breast cancer cell line (MCF-7/PAX).
Gene expression of ABC transporters were estimated using comercial predesigned Taqman Gene Expression Assays (Life technologies). TaqMan Gene Expression Assays are based on 5´ nuclease chemistry, and each assay contains the primer and probe set for target of interest. Taqman assays IDs and GenBank Accession numbers of reference sequencies identifying their location and amplicon lengths are included in the Supplementary Table I. * Relative transcript levels (P-value ) in treated and non-treated cancer cell lines were compared using REST 2009 software.

CC(=O)C[Se]C(=O)c1ccc(Br)cc1 [K3]
number of ABC genes with altered expression: 30
ABCA2 Expression Difference (IC10 alone, 48 h): 0.188
ABCA2 Treated vs. Untr. (IC10 alone, 48 h): DOWN
ABCA3 Expression Difference (IC10 alone, 48 h): 0.481
ABCA3 Treated vs. Untr. (IC10 alone, 48 h): DOWN
ABCA4 Expression Difference (IC10 alone, 48 h): 27.38
ABCA5 Expression Difference (IC10 alone, 48 h): 0.559
ABCA5 Treated vs. Untr. (IC10 alone, 48 h): DOWN
ABCA7 Expression Difference (IC10 alone, 48 h): 0.5100
ABCA7 Treated vs. Untr. (IC10 alone, 48 h): DOWN
ABCA12 Expression Difference (IC10 alone, 48 h): 1.149
ABCB1 Expression Difference (IC10 alone, 48 h): 0.401
ABCB1 Treated vs. Untr. (IC10 alone, 48 h): DOWN
ABCB2 Expression Difference (IC10 alone, 48 h): 0.354
ABCB2 Treated vs. Untr. (IC10 alone, 48 h): DOWN
ABCB3 Expression Difference (IC10 alone, 48 h): 0.235
ABCB3 Treated vs. Untr. (IC10 alone, 48 h): DOWN
ABCB6 Expression Difference (IC10 alone, 48 h): 0.340
ABCB6 Treated vs. Untr. (IC10 alone, 48 h): DOWN
ABCB7 Expression Difference (IC10 alone, 48 h): 0.143
ABCB7 Treated vs. Untr. (IC10 alone, 48 h): DOWN
ABCB8 Expression Difference (IC10 alone, 48 h): 0.488
ABCB8 Treated vs. Untr. (IC10 alone, 48 h): DOWN
ABCB9 Expression Difference (IC10 alone, 48 h): 0.422
ABCB9 Treated vs. Untr. (IC10 alone, 48 h): DOWN
ABCB10 Expression Difference (IC10 alone, 48 h): 0.922
ABCB10 Treated vs. Untr. (IC10 alone, 48 h): DOWN
ABCC1 Expression Difference (IC10 alone, 48 h): 0.272
ABCC1 Treated vs. Untr. (IC10 alone, 48 h): DOWN
ABCC2 Expression Difference (IC10 alone, 48 h): 0.076
ABCC2 Treated vs. Untr. (IC10 alone, 48 h): DOWN
ABCC3 Expression Difference (IC10 alone, 48 h): 15.79
ABCC4 Expression Difference (IC10 alone, 48 h): 0.221
ABCC4 Treated vs. Untr. (IC10 alone, 48 h): DOWN
ABCC5 Expression Difference (IC10 alone, 48 h): 1.010
ABCC6 Expression Difference (IC10 alone, 48 h): 0.958
ABCC6 Treated vs. Untr. (IC10 alone, 48 h): DOWN
ABCC8 Expression Difference (IC10 alone, 48 h): 0.648
ABCC8 Treated vs. Untr. (IC10 alone, 48 h): DOWN
ABCC10 Expression Difference (IC10 alone, 48 h): 0.171
ABCC10 Treated vs. Untr. (IC10 alone, 48 h): DOWN
ABCD1 Expression Difference (IC10 alone, 48 h): 0.123
ABCD1 Treated vs. Untr. (IC10 alone, 48 h): DOWN
ABCD3 Expression Difference (IC10 alone, 48 h): 0.267
ABCD3 Treated vs. Untr. (IC10 alone, 48 h): DOWN
ABCD4 Expression Difference (IC10 alone, 48 h): 0.971
ABCE1 Expression Difference (IC10 alone, 48 h): 0.552
ABCE1 Treated vs. Untr. (IC10 alone, 48 h): DOWN
ABCF1 Expression Difference (IC10 alone, 48 h): 2.388
ABCF2 Expression Difference (IC10 alone, 48 h): 0.625
ABCF2 Treated vs. Untr. (IC10 alone, 48 h): DOWN
ABCF3 Expression Difference (IC10 alone, 48 h): 0.487
ABCF3 Treated vs. Untr. (IC10 alone, 48 h): DOWN
ABCG1 Expression Difference (IC10 alone, 48 h): 0.132
ABCG1 Treated vs. Untr. (IC10 alone, 48 h): DOWN
ABCG2 Expression Difference (IC10 alone, 48 h): 0.250
ABCG2 Treated vs. Untr. (IC10 alone, 48 h): DOWN
ABCG4 Expression Difference (IC10 alone, 48 h): 0.204
ABCG4 Treated vs. Untr. (IC10 alone, 48 h): DOWN
decrease of expression of ABCB1 (P-gp) encoding gene (IC10 alone, 48 h): 60%
downregulation of expression of ABCC1 (MRP1) (IC10 alone, 48 h): 73%
downregulation of expression of ABCG2 (IC10 alone, 48 h): 75%
